# Tested on: RA patients
# Assay: LDL determination, Study 1 (RA patients, add-on to MTX)
# Format: in vivo, human
# Details: for [LDL] Mean CFB / [LDL] Median CFB: Study 1 12 weeks results
# Procedure: Double-blind, placebo-controlled add on study in subjects with moderately to severely active RA who have an inadequate response to methotrexate (MTX) (oral or parenteral).
# 595 subjects randomized to one of 6 dose regimens of Compound 1 (dosed as a [Compound 1:HCl:3H2O]) (3 dose levels administered either once or twice daily) or placebo on top of each subject's stable dose of MTX.
# Compound 1 (dosed as a [Compound 1:HCl:3H2O]) is dosed for twelve weeks once daily (q.d.) (50 mg, 100 mg or 200 mg) or twice daily (b.i.d.) (25 mg, 50 mg or 100 mg); or placebo.
# At Week 12, the subjects on placebo who have not achieved 20% improvement in swollen joint count (SJC66) and tender joint count (TJC68) are re-randomized automatically to receive Compound 1 (dosed as a [Compound 1:HCl:3H2O]) either at 100 mg q.d. or 50 mg b.i.d. doses in a blinded fashion; subjects on 50 mg q.d. who have not achieved 20% improvement in SJC66 and TJC68 will be assigned to 100 mg q.d. and subjects on 25 mg b.i.d. that have not achieved a 20% improvement in SJC66 and TJC68 will be assigned to 50 mg b.i.d. Subjects who switch treatment at week 12 are handled as if they discontinued at week 12 for the purpose of statistical analysis, whereas subjects in the other groups will maintain their randomized treatment until Week 24.
# The determination of [LDL]-cholesterol is made using an automated method taking advantage of the selective micellary solubilization of [LDL]-cholesterol by a nonionic detergent and the interaction of a sugar compound and lipoproteins (VLDL and chylomicrons).
# When a detergent is included in the enzymatic method for cholesterol determination (cholesterol esterase, cholesterol oxidase coupling reaction), the relative reactivities of cholesterol in the lipoprotein fractions increase in this order: [HDL]<chylomicrons <VLDL <[LDL]. In the presence of Mg^2+, a sugar compound markedly reduces the enzymatic reaction of the cholesterol measurement in VLDL and chylomicrons. The combination of a sugar compound with detergent enables the selective determination of [LDL]-cholesterol in serum. (Friedewald et al., 1972; Rifai et al., 1992)
# Homogeneous enzymatic colorimetric assay.
# In the presence of peroxidase, the hydrogen peroxide generated reacts with 4-aminoantipyrine and Sodium N-(2-hydroxy-3-sulfopropyl)-3,5-dimethoxyaniline (HSDA) to form a purple-blue dye.
# The color intensity of this dye is directly proportional to the cholesterol concentration and is measured photometrically.
# Human serum and plasma samples [LDL] determination was done on a Roche/Hitachi Cobas c 701/702 system which automatically calculate the analyte concentration of each sample. Samples containing precipitates are centrifuged before performing the assay.
compound,measurement,setting,value
"O=C(Nc1nc2cccc(-c3ccc(CN4CCS(=O)(=O)CC4)cc3)n2n1)C1CC1 [Compound 1, cyclopropanecarboxylic acid {5-[4-(1,1-dioxo-thiomorpholin-4-ylmethyl)-phenyl]-[1,2,4]triazolo[1,5-a]pyridin-2yl}-amide]",[LDL] Mean percentage CFB - 24 weeks results,"25 mg b.i.d continued over 24 weeks, week 1",2.79%
same,[LDL] Mean percentage CFB - 24 weeks results,"25 mg b.i.d continued over 24 weeks, week 2",3.88%
same,[LDL] Mean percentage CFB - 24 weeks results,"25 mg b.i.d continued over 24 weeks, week 4",4.15%
same,[LDL] Mean percentage CFB - 24 weeks results,"25 mg b.i.d continued over 24 weeks, week 8",3.83%
same,[LDL] Mean percentage CFB - 24 weeks results,"25 mg b.i.d continued over 24 weeks, week 12",7.21%
same,[LDL] Mean percentage CFB - 24 weeks results,"25 mg b.i.d continued over 24 weeks, week 16",6.54%
same,[LDL] Mean percentage CFB - 24 weeks results,"25 mg b.i.d continued over 24 weeks, week 20",7.42%
same,[LDL] Mean percentage CFB - 24 weeks results,"25 mg b.i.d continued over 24 weeks, week 24",8.14%
same,[LDL] Mean percentage CFB - 24 weeks results,"50 mg b.i.d. continued over 24 weeks, week 1",4.19%
same,[LDL] Mean percentage CFB - 24 weeks results,"50 mg b.i.d. continued over 24 weeks, week 2",3.43%
same,[LDL] Mean percentage CFB - 24 weeks results,"50 mg b.i.d. continued over 24 weeks, week 4",7.11%
same,[LDL] Mean percentage CFB - 24 weeks results,"50 mg b.i.d. continued over 24 weeks, week 8",4.75%
same,[LDL] Mean percentage CFB - 24 weeks results,"50 mg b.i.d. continued over 24 weeks, week 12",2.33%
same,[LDL] Mean percentage CFB - 24 weeks results,"50 mg b.i.d. continued over 24 weeks, week 16",5.78%
same,[LDL] Mean percentage CFB - 24 weeks results,"50 mg b.i.d. continued over 24 weeks, week 20",7.08%
same,[LDL] Mean percentage CFB - 24 weeks results,"50 mg b.i.d. continued over 24 weeks, week 24",8.29%
same,[LDL] Mean percentage CFB - 12 weeks results,"50 mg q.d. (N = 82), week 1",0%
same,[LDL] Mean percentage CFB - 12 weeks results,"50 mg q.d. (N = 82), week 2",1%
same,[LDL] Mean percentage CFB - 12 weeks results,"50 mg q.d. (N = 82), week 4",0%
same,[LDL] Mean percentage CFB - 12 weeks results,"50 mg q.d. (N = 82), week 8",3%
same,[LDL] Mean percentage CFB - 12 weeks results,"50 mg q.d. (N = 82), week 12",6%
same,[LDL] Mean percentage CFB - 24 weeks results,"50 mg q.d. continued over 24 weeks, week 1",0.26%
same,[LDL] Mean percentage CFB - 24 weeks results,"50 mg q.d. continued over 24 weeks, week 2",−0.24%
same,[LDL] Mean percentage CFB - 24 weeks results,"50 mg q.d. continued over 24 weeks, week 4",0.35%
same,[LDL] Mean percentage CFB - 24 weeks results,"50 mg q.d. continued over 24 weeks, week 8",3.58%
same,[LDL] Mean percentage CFB - 24 weeks results,"50 mg q.d. continued over 24 weeks, week 12",6.67%
same,[LDL] Mean percentage CFB - 24 weeks results,"50 mg q.d. continued over 24 weeks, week 16",6.70%
same,[LDL] Mean percentage CFB - 24 weeks results,"50 mg q.d. continued over 24 weeks, week 20",6.29%
same,[LDL] Mean percentage CFB - 24 weeks results,"50 mg q.d. continued over 24 weeks, week 24",6.05%
same,[LDL] Mean percentage CFB - 24 weeks results,"100 mg b.i.d. continued over 24 weeks, week 1",8.14%
same,[LDL] Mean percentage CFB - 24 weeks results,"100 mg b.i.d. continued over 24 weeks, week 4",7.69%
same,[LDL] Mean percentage CFB - 24 weeks results,"100 mg b.i.d. continued over 24 weeks, week 8",13.14%
same,[LDL] Mean percentage CFB - 24 weeks results,"100 mg b.i.d. continued over 24 weeks, week 12",11.86%
same,[LDL] Mean percentage CFB - 24 weeks results,"100 mg b.i.d. continued over 24 weeks, week 16",9.44%
same,[LDL] Mean percentage CFB - 24 weeks results,"100 mg b.i.d. continued over 24 weeks, week 20",7.71%
same,[LDL] Mean percentage CFB - 24 weeks results,"100 mg b.i.d. continued over 24 weeks, week 24",12.88%
same,[LDL] Mean percentage CFB - 12 weeks results,"100 mg q.d. (N = 85), week 1",5%
same,[LDL] Mean percentage CFB - 12 weeks results,"100 mg q.d. (N = 85), week 2",2%
same,[LDL] Mean percentage CFB - 12 weeks results,"100 mg q.d. (N = 85), week 4",5%
same,[LDL] Mean percentage CFB - 12 weeks results,"100 mg q.d. (N = 85), week 8",4%
same,[LDL] Mean percentage CFB - 12 weeks results,"100 mg q.d. (N = 85), week 12",6%
same,[LDL] Mean percentage CFB - 24 weeks results,"100 mg q.d. continued over 24 weeks, week 1",5.08%
same,[LDL] Mean percentage CFB - 24 weeks results,"100 mg q.d. continued over 24 weeks, week 2",1.97%
same,[LDL] Mean percentage CFB - 24 weeks results,"100 mg q.d. continued over 24 weeks, week 4",5.31%
same,[LDL] Mean percentage CFB - 24 weeks results,"100 mg q.d. continued over 24 weeks, week 8",3.51%
same,[LDL] Mean percentage CFB - 24 weeks results,"100 mg q.d. continued over 24 weeks, week 12",5.69%
same,[LDL] Mean percentage CFB - 24 weeks results,"100 mg q.d. continued over 24 weeks, week 16",0.89%
same,[LDL] Mean percentage CFB - 24 weeks results,"100 mg q.d. continued over 24 weeks, week 20",1.19%
same,[LDL] Mean percentage CFB - 24 weeks results,"100 mg q.d. continued over 24 weeks, week 24",2.66%
same,[LDL] Mean percentage CFB - 12 weeks results,"200 mg q.d. (N = 86), week 1",6%
same,[LDL] Mean percentage CFB - 12 weeks results,"200 mg q.d. (N = 86), week 2",6%
same,[LDL] Mean percentage CFB - 12 weeks results,"200 mg q.d. (N = 86), week 4",6%
same,[LDL] Mean percentage CFB - 12 weeks results,"200 mg q.d. (N = 86), week 8",8%
same,[LDL] Mean percentage CFB - 12 weeks results,"200 mg q.d. (N = 86), week 12",8%
same,[LDL] Mean percentage CFB - 24 weeks results,"200 mg q.d. continued over 24 weeks, week 1",6.34%
same,[LDL] Mean percentage CFB - 24 weeks results,"200 mg q.d. continued over 24 weeks, week 2",5.81%
same,[LDL] Mean percentage CFB - 24 weeks results,"200 mg q.d. continued over 24 weeks, week 4",5.97%
same,[LDL] Mean percentage CFB - 24 weeks results,"200 mg q.d. continued over 24 weeks, week 8",7.93%
same,[LDL] Mean percentage CFB - 24 weeks results,"200 mg q.d. continued over 24 weeks, week 12",7.96%
same,[LDL] Mean percentage CFB - 24 weeks results,"200 mg q.d. continued over 24 weeks, week 16",7.99%
same,[LDL] Mean percentage CFB - 24 weeks results,"200 mg q.d. continued over 24 weeks, week 20",8.85%
same,[LDL] Mean percentage CFB - 24 weeks results,"200 mg q.d. continued over 24 weeks, week 24",7.78%
same,[LDL] Mean percentage CFB - 12 weeks results,"2 x 25 mg b.i.d. (N = 86), week 1",3%
same,[LDL] Mean percentage CFB - 12 weeks results,"2 x 25 mg b.i.d. (N = 86), week 2",4%
same,[LDL] Mean percentage CFB - 12 weeks results,"2 x 25 mg b.i.d. (N = 86), week 4",3%
same,[LDL] Mean percentage CFB - 12 weeks results,"2 x 25 mg b.i.d. (N = 86), week 8",2%
same,[LDL] Mean percentage CFB - 12 weeks results,"2 x 25 mg b.i.d. (N = 86), week 12",6%
same,[LDL] Mean percentage CFB - 12 weeks results,"2 x 50 mg b.i.d. (N = 85), week 1",4%
same,[LDL] Mean percentage CFB - 12 weeks results,"2 x 50 mg b.i.d. (N = 85), week 2",3%
same,[LDL] Mean percentage CFB - 12 weeks results,"2 x 50 mg b.i.d. (N = 85), week 4",7%
same,[LDL] Mean percentage CFB - 12 weeks results,"2 x 50 mg b.i.d. (N = 85), week 8",5%
same,[LDL] Mean percentage CFB - 12 weeks results,"2 x 50 mg b.i.d. (N = 85), week 12",2%
same,[LDL] Mean percentage CFB - 12 weeks results,"2 x 100 mg b.i.d. (N = 84), week 1",8%
same,[LDL] Mean percentage CFB - 12 weeks results,"2 x 100 mg b.i.d. (N = 84), week 2",6%
same,[LDL] Mean percentage CFB - 12 weeks results,"2 x 100 mg b.i.d. (N = 84), week 4",8%
same,[LDL] Mean percentage CFB - 12 weeks results,"2 x 100 mg b.i.d. (N = 84), week 8",13%
same,[LDL] Mean percentage CFB - 12 weeks results,"2 x 100 mg b.i.d. (N = 84), week 12",12%
same,[LDL] Mean CFB,"50 mg q.d., week 1",-0.01 mmol/L
same,[LDL] Median CFB,"50 mg q.d., week 1",-0.01 mmol/L
same,[LDL] Mean CFB,"50 mg q.d., week 2",0.02 mmol/L
same,[LDL] Median CFB,"50 mg q.d., week 2",0.02 mmol/L
same,[LDL] Mean CFB,"50 mg q.d., week 4",0.01 mmol/L
same,[LDL] Median CFB,"50 mg q.d., week 4",-0.01 mmol/L
same,[LDL] Mean CFB,"50 mg q.d., week 8",0.06 mmol/L
same,[LDL] Median CFB,"50 mg q.d., week 8",0.07 mmol/L
same,[LDL] Mean CFB,"50 mg q.d., week 12",0.14 mmol/L
same,[LDL] Median CFB,"50 mg q.d., week 12",0.13 mmol/L
same,[LDL] Mean CFB,"100 mg q.d., week 1",0.11 mmol/L
same,[LDL] Median CFB,"100 mg q.d., week 1",0.1 mmol/L
same,[LDL] Mean CFB,"100 mg q.d., week 2",0.01 mmol/L
same,[LDL] Median CFB,"100 mg q.d., week 2",0.02 mmol/L
same,[LDL] Mean CFB,"100 mg q.d., week 4",0.13 mmol/L
same,[LDL] Median CFB,"100 mg q.d., week 4",0.13 mmol/L
same,[LDL] Mean CFB,"100 mg q.d., week 8",0.03 mmol/L
same,[LDL] Median CFB,"100 mg q.d., week 8",0.05 mmol/L
same,[LDL] Mean CFB,"100 mg q.d., week 12",0.13 mmol/L
same,[LDL] Median CFB,"100 mg q.d., week 12",0.13 mmol/L
same,[LDL] Mean CFB,"200 mg q.d., week 1",0.16 mmol/L
same,[LDL] Median CFB,"200 mg q.d., week 1",0.16 mmol/L

# — US10376520B2, “Methods for the treatment of cardiovascular disorders” (Galapagos NV, priority 2015, dated 2019)
